Reference: article PMC3236199, “Development of Derivatives of 3, 3′-Diindolylmethane as Potent Leishmania donovani Bi-Subunit Topoisomerase IB Poisons” (PLoS ONE, 2011)

How the values were obtained:
[1] = test system: wild type L. donovani AG83 promastigotes; assay: DNA fragmentation assay (cell death detection ELISA), wild type; assay type: cell-based, Leishmania donovani; conditions: 20 µM
Experimental: Leishmanial cells were cultured in 24-well plates and treated with 20 µM of DIM, DPDIM, DMDIM and DMODIM for different times. Samples were collected at requisite time points and subjected to measurement of DNA fragmentations. Cytoplasmic histone-associated DNA fragments (mononucleosome and oligonucleosomes) formed during apoptosis were detected using a cell death detection ELISA kit (Roche Biochemicals) by spectrophotometric measurement of microtiter plates in a Thermo MULTISKAN EX plate reader at 405 nm. The relative percentages (with respect to samples treated with micrococcal nuclease and normalized to percentage values) were plotted as units of time or drug concentrations as described previously.
The internucleosomal DNA digestion by an endogenous nuclease (genomic DNA fragmentation) is considered as a hallmark of apoptotic cell death. […] To investigate whether these derivatives also do the same, we performed the DNA fragmentation assay with wild type L. donovani AG83 promastigotes and DIM resistant parasites (Fig. 4) by ELISA as described in Materials and Methods. […] DNA fragmentation increased to 85%, 89%, 81% and 71% at 8 h of treatment in wild type parasites. The DIM resistant parasites (LdDR50) have much less effect in DNA fragmentation (13% at 6 h and 17% at 8 h) when treated with 20 µM DIM. On the other hand the extents of DNA fragmentations were 63%, 51% and 40% at 6 h treatment with DPDIM, DMDIM and DMODIM respectively. The extent of fragmentation increased to 82%, 74% and 65% after treatment for 8 h with the drugs as mentioned above.
Figure 4 DIM derivatives-induced fragmentation of genomic DNA in wild type and DIM resistant parasites. Relative percentage of DNA fragmentation measured by cell death detection ELISA kit in L. donovani promastigotes treated with DIM, DPDIM, DMDIM and DMODIM. The experiments were performed three times and representative data from one of these experiments as means ± SD.

CT DNA = assay: Spectrofluorometric binding assay (fluorescence quenching); conditions: for Kd: CT DNA 10 to 200 µM, 25°C, Scatchard analysis, read-out: dissociation constant (KD)
Experimental: Fluorescence titration was measured using Perkin Elmer, LS55, and Luminescence spectrometer. The intrinsic binding of DIM-derivatives to DNA was performed separately by fluorescence measurements at an excitation wavelength of 335 nm, 265 nm and 338 nm and emission range of 350 to 450 nm, 300 to 450 nm and 380 to 540 nm for DPDIM, DMDIM and DMODIM, respectively. Excitation and emission slit widths were 5 nm and 7.5 nm; 5 nm and 15 nm; and 5 nm and 15 nm for DPDIM, DMDIM and DMODIM, respectively. Background emission (<2%) was corrected by subtraction of spectra of blank buffer, DNA plus sample buffer and compounds plus sample buffer, respectively. Spectral titration was performed with DIM derivatives at 25°C in fluorescence buffer (20 mM Tris-HCL, pH 7.5, 50 mM NaCl and 10 mM MgCl2). CT DNA was added in increasing concentrations (10 to 200 µM), which are indicated in the legend. All the assays were performed in duplicate, titration points are corrected as described above and binding constants for DIM DNA-compound interaction were determined according to following equation: [drawing 2] (Eq–1) where ΔF = Fx−Fo, Fx and Fo representing the florescence intensity of DIM derivatives in the presence or absence of the added total DNA (St), respectively. ΔFmax is the maximum change in the fluorescence intensity. The intercept of the plot on the 1/F axis corresponding to 1/St = 0 measures the 1/Fmax, while the slope gives the estimation of the affinity constant (Ka). The dissociation constant KD = 1/Ka.
Therefore, it was of interest to determine whether DIM derivatives could interact with DNA. Fluorescence quenching assay was performed to determine the interaction between the derivatives of DIM and DNA at different concentrations of DNA (10 to 200 µM). DPDIM has fluorescence emission maximum (λem ^max) at the wavelength of 390 nm with a λex of 335 nm, whereas DMDIM has fluorescence emission maximum at a wavelength of 379 nm with a λex of 265 nm and DMODIM has fluorescence emission maximum at a wavelength of 450 nm with a λex of 338 nm. The excitation and emission slit widths were set at 5 nm and 7.5 nm for DPDIM, 5 nm and 15 nm for DMDIM; and 5 nm and 15 nm for DMODIM. Appropriate blanks corresponding to the buffer were subtracted to correct the background fluorescence. The fluorescence intensity decreases by increasing the concentration of DNA due to quenching reaction. Addition of DNA causes a slight shift of the maximum peak (λ shift) from 390 nm to 386 nm for DPDIM and from 379 nm to 374 nm for DMDIM with a concomitant decrease in fluorescence intensity (Fig. 7A and B). There is no λ shift for DMODIM (Fig. 7C). A progressive change in the fluorescence spectra of three DIM-derivatives on addition of different concentrations of DNA indicated an association between them.
Figure 7 Fluorescence quenching study of DIM derivatives-DNA interaction. (A) CT DNA concentration-dependently quenched DPDIM fluorescence at 390 nm. (B) CT DNA concentration-dependently quenched DMDIM fluorescence at 379 nm. (C) CT DNA concentration-dependently quenched DMODIM fluorescence at 450 nm. The arrow of each figure indicates the change in the emission spectra of DPDIM, DMDIM and DMODIM respectively on addition of CT DNA.

Structure (SMILES) | fragmentation of DNA ([1]; 6 h) [%] | fragmentation of DNA ([1]; 8 h) [%] | Kd (CT DNA) [µM] | affinity to DNA less compared to DIM (CT DNA; versus DIM) [fold] | affinity to DNA greater compared to DIM (CT DNA; versus DIM mother compound) [fold]
c1ccc2c(Cc3c[nH]c4ccccc34)c[nH]c2c1 [DIM, 3, 3′-diindolyl methane, reference compound] | 73 | 85 |  |  | 
Cc1[nH]c2ccccc2c1Cc1c(C)[nH]c2ccccc12 [DMDIM, 2,2′-dimethyl 3,3′-diindolyl methane] | 60 | 81 | 63 |  | 
COc1ccc2[nH]cc(Cc3c[nH]c4ccc(OC)cc34)c2c1 [DMODIM, 5,5′-dimethoxy 3,3′-diindolyl methane] | 49 | 71 | 48 | ~2 | 
c1ccc(-c2[nH]c3ccccc3c2Cc2c(-c3ccccc3)[nH]c3ccccc23)cc1 [DPDIM, 2,2′-diphenyl 3,3′-diindolyl methane] | 79 | 89 | 11 |  | 2
